# In patent US11046699B2, “Pyrazolo-pyrimidin-amino-cycloalkyl compounds and their therapeutic uses” (RAPT THERAPEUTICS, INC., priority 2018, dated 2021):
# Biological target: GCN2 (Homo sapiens, UniProt Q9P2K8)
# Test: GCN2 enzymatic endpoint assay: phosphorylation of GFP-eIF2α measured by TR-FRET (Lanthascreen)
# Type: biochemical
# Conditions: GCN2 biochemical IC50; 4 nM GCN2, 2 μM ATP, 80 nM GFP-eIF2α, 90 min RT; read-out: GCN2 activity
# In short: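 Endpoint GCN2 reaction with low ATP (2 μM) and 80 nM GFP-eIF2α, room temperature, 90 minutes. Detection mix with EDTA and Tb-labelled antibody; 520 nm/495 nm emission ratio reported.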
# Chain of GCN2 (Q9P2K8 whole entry): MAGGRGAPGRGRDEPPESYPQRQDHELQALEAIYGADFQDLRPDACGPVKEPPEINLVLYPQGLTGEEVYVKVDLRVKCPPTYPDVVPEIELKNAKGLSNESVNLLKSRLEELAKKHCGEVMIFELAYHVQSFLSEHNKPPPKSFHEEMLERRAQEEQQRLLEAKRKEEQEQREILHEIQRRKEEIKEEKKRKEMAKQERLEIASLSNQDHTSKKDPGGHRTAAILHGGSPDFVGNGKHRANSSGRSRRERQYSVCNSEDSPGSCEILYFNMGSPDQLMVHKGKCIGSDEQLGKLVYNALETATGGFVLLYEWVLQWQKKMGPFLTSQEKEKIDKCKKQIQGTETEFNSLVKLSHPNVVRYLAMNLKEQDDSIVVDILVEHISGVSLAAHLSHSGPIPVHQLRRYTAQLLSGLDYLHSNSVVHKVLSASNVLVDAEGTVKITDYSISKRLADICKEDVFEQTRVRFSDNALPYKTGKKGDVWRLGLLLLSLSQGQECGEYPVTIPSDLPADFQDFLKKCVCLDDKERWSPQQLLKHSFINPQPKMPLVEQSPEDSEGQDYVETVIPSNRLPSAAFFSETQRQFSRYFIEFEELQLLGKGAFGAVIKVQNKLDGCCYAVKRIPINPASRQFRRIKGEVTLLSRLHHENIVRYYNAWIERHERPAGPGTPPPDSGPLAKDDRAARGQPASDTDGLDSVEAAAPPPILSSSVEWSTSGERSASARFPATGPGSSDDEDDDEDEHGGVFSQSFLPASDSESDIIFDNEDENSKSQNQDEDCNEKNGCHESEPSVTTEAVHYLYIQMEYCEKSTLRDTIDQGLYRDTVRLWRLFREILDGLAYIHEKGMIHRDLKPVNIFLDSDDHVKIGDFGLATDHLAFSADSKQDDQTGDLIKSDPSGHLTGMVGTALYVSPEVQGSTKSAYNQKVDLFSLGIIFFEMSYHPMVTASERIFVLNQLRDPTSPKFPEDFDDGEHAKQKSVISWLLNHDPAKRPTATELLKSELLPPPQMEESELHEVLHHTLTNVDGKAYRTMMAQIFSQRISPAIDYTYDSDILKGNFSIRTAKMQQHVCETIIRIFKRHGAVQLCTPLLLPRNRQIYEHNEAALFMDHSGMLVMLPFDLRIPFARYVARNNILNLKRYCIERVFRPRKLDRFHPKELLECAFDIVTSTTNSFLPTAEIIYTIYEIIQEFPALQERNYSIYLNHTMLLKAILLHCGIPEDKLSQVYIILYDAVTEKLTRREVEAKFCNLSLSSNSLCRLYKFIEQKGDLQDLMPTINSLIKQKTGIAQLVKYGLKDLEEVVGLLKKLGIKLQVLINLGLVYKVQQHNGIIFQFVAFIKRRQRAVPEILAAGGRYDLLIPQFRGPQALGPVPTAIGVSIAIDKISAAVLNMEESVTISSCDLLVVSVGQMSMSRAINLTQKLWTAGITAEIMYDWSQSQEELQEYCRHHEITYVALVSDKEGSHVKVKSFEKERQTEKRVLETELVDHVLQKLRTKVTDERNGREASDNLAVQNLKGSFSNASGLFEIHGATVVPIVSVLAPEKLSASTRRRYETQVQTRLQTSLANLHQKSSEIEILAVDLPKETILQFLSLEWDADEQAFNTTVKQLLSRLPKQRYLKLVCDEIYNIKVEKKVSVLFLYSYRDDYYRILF
row,IC50 [nM],Structure (SMILES)
1,< 25,"CNS(=O)(=O)[C@@H]1CC[C@@H](Nc2ncc3c(Br)nn(-c4ccc(-c5nnc(C)s5)cc4)c3n2)C1 [Example 68, (1R,3R)-3-((3-bromo-1-(4-(5-methyl-1,3,4-thiadiazol-2-yl)phenyl)-1H-pyrazolo[3,4-d]pyrimidin-6-yl)amino)-N-methylcyclopentane-1-sulfonamide]"
2,< 25,"CNC(=O)[C@]1(C)CC[C@@H](Nc2ncc3c(Br)nn(-c4ccc(-c5nnc(C)s5)c(C#N)c4)c3n2)C1 [Example 69, (1R,3R)-3-((3-bromo-1-(3-cyano-4-(5-methyl-1,3,4-thiadiazol-2-yl)phenyl)-1H-pyrazolo[3,4-d]pyrimidin-6-yl)amino)-N,1-dimethylcyclopentane-1-carboxamide]"
3,< 25,"Cn1cnc2ccc(-n3nc(Br)c4cnc(N[C@@H]5CC[C@@](C)(O)C5)nc43)cc2c1=O [Example 70, 6-(3-bromo-6-(((1R,3R)-3-hydroxy-3-methylcyclopentyl)amino)-1H-pyrazolo[3,4-d]pyrimidin-1-yl)-3-methylquinazolin-4(3H)-one]"
4,25 to 200,"CNC(=O)C[C@H]1C[C@H](Nc2ncc3c(Br)nn(-c4cc(Cl)cc([C@H](C)N)c4)c3n2)C1 [Example 71, 2-((1S,3r)-3-((1-(3-((S)-1-aminoethyl)-5-chlorophenyl)-3-bromo-1H-pyrazolo[3,4-d]pyrimidin-6-yl)amino)cyclobutyl)-N-methylacetamide]"
5,25 to 200,"CNC(=O)[C@]1(C)CC[C@@H](Nc2ncc3c(Br)nn(-c4ccc5ncn(C)c(=O)c5c4)c3n2)C1 [Example 72, (1R,3R)-3-((3-bromo-1-(3-methyl-4-oxo-3,4-dihydroquinazolin-6-yl)-1H-pyrazolo[3,4-d]pyrimidin-6-yl)amino)-N,1-dimethylcyclopentane-1-carboxamide]"
6,25 to 200,"CNC(=O)[C@]1(C)CC[C@@H](Nc2ncc3c(Br)nn(-c4ccc5nc(N6CCC6)ncc5c4)c3n2)C1 [Example 73, (1R,3R)-3-((1-(2-(azetidin-1-yl)quinazolin-6-yl)-3-bromo-1H-pyrazolo[3,4-d]pyrimidin-6-yl)amino)-N,1-dimethylcyclopentane-1-carboxamide]"
7,25 to 200,"Cc1nnc(-c2ccc(-n3nc(Br)c4cnc(N[C@@H]5CC[C@@](C)(O)C5)nc43)cc2)s1 [Example 74, (1R,3R)-3-((3-bromo-1-(4-(5-methyl-1,3,4-thiadiazol-2-yl)phenyl)-1H-pyrazolo[3,4-d]pyrimidin-6-yl)amino)-1-methylcyclopentan-1-ol]"
8,25 to 200,"C[C@H](N)c1cc(Cl)cc(-n2nc(Br)c3cnc(N[C@@H]4CC[C@@](C)(O)C4)nc32)c1 [Example 75, (1R,3R)-3-((1-(3-((S)-1-aminoethyl)-5-chlorophenyl)-3-bromo-1H-pyrazolo[3,4-d]pyrimidin-6-yl)amino)-1-methylcyclopentan-1-ol]"
9,25 to 200,"Cc1nnc(-c2ccc(-n3nc(Br)c4cnc(N[C@@H]5CC[C@@](C)(O)C5)nc43)cc2CCC#N)s1 [Example 76, 3-(5-(3-bromo-6-(((1R,3R)-3-hydroxy-3-methylcyclopentyl)amino)-1H-pyrazolo[3,4-d]pyrimidin-1-yl)-2-(5-methyl-1,3,4-thiadiazol-2-yl)phenyl)propanenitrile]"

# Same assay, conditions: tested as described in Example 77; compound and/or hydrochloride, dihydrochloride or trifluoroacetic acid salt; read-out: IC 50 Activity
row,IC50 [nM],Structure (SMILES)
1,25 to 200,"CN(CCNC(=O)[C@@H]1CC[C@@H](Nc2ncc3c(Br)nn(-c4cc(F)c5ncccc5c4)c3n2)C1)CC(=O)O [N-(2-((1R,3R)-3-((3-bromo-1-(8-fluoroquinolin-6-yl)-1H-pyrazolo[3,4-d]pyrimidin-6-yl)amino)cyclopentane-1-carboxamido)ethyl)-N-methylglycine]"
2,25 to 200,"CN(CCNC(=O)[C@@H]1CC[C@@H](Nc2ncc3c(Br)nn(-c4ccc5ncccc5c4)c3n2)C1)CC(=O)O [N-(2-((1R,3R)-3-((3-bromo-1-(quinolin-6-yl)-1H-pyrazolo[3,4-d]pyrimidin-6-yl)amino)cyclopentane-1-carboxamido)ethyl)-N-methylglycine]"
3,25 to 200,"CNC(=O)[C@]1(C)CC[C@@H](Nc2ncc3c(Br)nn(-c4cc(Cl)cc(C(=O)N(C)C5CNC5)c4)c3n2)C1 [N-(azetidin-3-yl)-3-[3-bromo-6-[[(1R,3R)-3-methyl-3-(methylcarbamoyl)cyclopentyl]amino]pyrazolo[3,4-d]pyrimidin-1-yl]-5-chloro-N-methyl-benzamide]"
4,25 to 200,"CNC(=O)[C@]1(C)CC[C@@H](Nc2ncc3c(Br)nn(-c4cc(Cl)cc(C(=O)NC5CNC5)c4)c3n2)C1 [N-(azetidin-3-yl)-3-[3-bromo-6-[[(1R,3R)-3-methyl-3-(methylcarbamoyl)cyclopentyl]amino]pyrazolo[3,4-d]pyrimidin-1-yl]-5-chloro-benzamide]"
5,25 to 200,"CNC(=O)[C@]1(C)CC[C@@H](Nc2ncc3c(Br)nn(-c4cc(Cl)cc(NC(=O)C5CNC5)c4)c3n2)C1 [N-[3-[3-bromo-6-[[(1R,3R)-3-methyl-3-(methylcarbamoyl)cyclopentyl]amino]pyrazolo[3,4-d]pyrimidin-1-yl]-5-chloro-phenyl]azetidine-3-carboxamide]"
6,25 to 200,"CNC(=O)[C@]1(C)CC[C@@H](Nc2ncc3c(Br)nn(-c4cccc(NC(=O)c5cncnc5)c4)c3n2)C1 [N-[3-[3-bromo-6-[[(1R,3R)-3-methyl-3-(methylcarbamoyl)cyclopentyl]amino]pyrazolo[3,4-d]pyrimidin-1-yl]phenyl] pyrimidine-5-carboxamide]"
7,25 to 200,"CNC(=O)[C@]1(C)CC[C@@H](Nc2ncc3c(Br)nn(-c4cccc(NC(=O)c5cscn5)c4)c3n2)C1 [N-[3-[3-bromo-6-[[(1R,3R)-3-methyl-3-(methylcarbamoyl)cyclopentyl]amino]pyrazolo[3,4-d]pyrimidin-1-yl]phenyl] thiazole-4-carboxamide]"
8,25 to 200,"CNC(=O)[C@]1(C)CC[C@@H](Nc2ncc3c(Br)nn(-c4cccc(NC(=O)c5ccn[nH]5)c4)c3n2)C1 [N-[3-[3-bromo-6-[[(1R,3R)-3-methyl-3-(methylcarbamoyl)cyclopentyl]amino]pyrazolo[3,4-d]pyrimidin-1-yl]phenyl]-1H-pyrazole-5-carboxamide]"
9,25 to 200,"Fc1cc(-n2nc(Br)c3cnc(NC4COC5(CCNCC5)C4)nc32)cc2cccnc12 (stereo not drawn) [N-[3-bromo-1-(8-fluoro-6-quinolyl)pyrazolo [3,4-d]pyrimidin-6-yl]-1-oxa-8-azaspiro[4.5] decan-3-amine]"
10,< 25,"CNC(=O)[C@]1(C)CC[C@@H](Nc2ncc3c(Br)nn(-c4ccc(-c5ncco5)c(NC(=O)C5CNC5)c4)c3n2)C1 [N-[5-[3-bromo-6-[[(1R,3R)-3-methyl-3-(methylcarbamoyl)cyclopentyl]amino]pyrazolo[3,4-d]pyrimidin-1-yl]-2-oxazol-2-yl-phenyl]azetidine-3-carboxamide]"
11,< 25,"CNC(=O)[C@]1(C)CC[C@@H](Nc2ncc3c(Br)nn(-c4ccc(-c5ncco5)c(NC(=O)C5CCNCC5)c4)c3n2)C1 [N-[5-[3-bromo-6-[[(1R,3R)-3-methyl-3-(methylcarbamoyl)cyclopentyl]amino]pyrazolo[3,4-d]pyrimidin-1-yl]-2-oxazol-2-yl-phenyl]piperidine-4-carboxamide]"
12,< 25,"CNC(=O)[C@]1(C)CC[C@@H](Nc2ncc3c(Br)nn(-c4ccc5ncc(NC(=O)C6CNC6)cc5c4)c3n2)C1 [N-[6-[3-bromo-6-[[(1R,3R)-3-methyl-3-(methylcarbamoyl)cyclopentyl]amino]pyrazolo[3,4-d]pyrimidin-1-yl]-3-quinolyl]azetidine-3-carboxamide]"
